Reference: patent US20240350503A1, “COMPOUNDS FOR TREATMENT OF VIRAL INFECTIONS BY NEUROTROPIC VIRUS” (priority 2021, published 2024)
“Also recorded” adds a separate entry of the source. Read-outs that look alike come from different tables or passages of the source.

Columns and labels:
HSV-1 [1] = assay type: cell-based, HSV-1 KOS strain
HSV-1 [2] = assay type: cell-based, HSV-1 KOS strain; remark: listed apart in the source
HSV-2 [3] = assay type: cell-based, HSV-2 333 strain
HSV-2 [4] = assay type: cell-based, HSV-2 333 strain; remark: listed apart in the source
VSV = assay type: cell-based, Indiana strain VSV; conditions: SH-SY5Y cells, 0.5 μM, 2 h pre-treatment, MOI 0.001, 18 h; versus DMSO control
EMCV = assay type: cell-based, FA strain EMCV
Influenza A virus = assay: RT-qPCR of Influenza A virus matrix 2 (M2) RNA in infected SH-SY5Y cells; assay type: cell-based, Influenza virus A (H1N1) strain PR8; conditions: 1 μM, 2 h pre-treatment, MOI 0.1, 48 h, versus DMSO control
HSV-1 [5] = assay: virus plaque assay of supernatant from HSV-1 infected mouse primary neurons; assay type: cell-based, HSV-1 KOS strain; conditions: 0.5 μM, 2 h pre-treatment, MOI 3, 72 h, versus DMSO control
Procedure: (§1) The isolated mouse primary-neurons were pre-treated with ML228 and DMSO at a concentration of 0.5 μM for 2 hours and were infected with HSV-1, at a MOI of 3 and HSV-2, at a MOI of 2. After 4 hours infection, the virus was removed and the cells were incubated with ML228 and DMSO for 72 hours. After 72 hours, the supernatant was used for virus plaque assay and the cells were lysed for RNA-extraction and RT-qPCRt.
(§2) Supernatants collected from mouse primary neurons treated with ML228 and DMSO and infected with HSV-1 and HSV-2, were used for virus titer in a virus plaque assay. For this purpose, Vero cells at a density of 1.2×10^6 cells/petri dish, in DMEM were seeded and left overnight in order to settle and to form a monolayer. The next day, cells were infected with 100 μL of supernatant in appropriate serial dilutions. The cells were incubated for 1 hour at 37° C. Subsequently, 5 ml DMEM supplemented with 0.2% normal human immunoglobin (Octapharma) were added to the cells. The plates were incubated for 2-3 days at 37° C. and stained with 0.03% methyl blue. The plaques were counted and the results were represented as PFU (plaque-forming units) per sample.

HSV-1 [6] = assay: RT-qPCR of HSV-1 glycoprotein B RNA in infected mouse primary neurons; assay type: cell-based, HSV-1 KOS strain; conditions: 0.5 μM, 2 h pre-treatment, MOI 3, 72 h, versus DMSO control
Procedure: as §1
(§3) The RT-qPCR results were obtained by total RNA extraction using the High Pure RNA Isolation kit (Roche) according to the manufacturer's instructions. RNA quality and concentration was assessed using Nanodrop spectrometry (Thermo Fisher). Viral replication was analysed by measuring RNA level against HSV-(1/2) Glycoprotein B (gB) using Brilliant III Ultra-Fast SYBR Green QRT-PCR Master Mix kit (Agilent Technology). CT values were normalized versus 18srRNA (ACT) in HSV-(1/2) infection.

HSV-2 [7] = assay: virus plaque assay of supernatant from HSV-2 infected mouse primary neurons; assay type: cell-based, HSV-2 333 strain; conditions: 0.5 μM, 2 h pre-treatment, MOI 2, 72 h, versus DMSO control
Procedure: as §1, §2

HSV-2 [8] = assay: RT-qPCR of HSV-2 glycoprotein B RNA in infected mouse primary neurons; assay type: cell-based, HSV-2 333 strain; conditions: 0.5 μM, 2 h pre-treatment, MOI 2, 72 h, versus DMSO control
Procedure: as §1, §3

IRF1 gene expression = assay: RNA-sequencing of IRF1 gene expression in SH-Sy5y cells upon ML228 treatment; assay type: cell-based, human; conditions: SH-Sy5y cells treated with AAVS1 sgRNA, ML228 0.5 μM for 8 h versus DMSO control

## c1ccc(-c2ccc(CNc3nc(-c4ccccn4)nnc3-c3ccccc3)cc2)cc1 [ML228]
HSV-1 [1]
  number of plaque forming units (PFU) in titer, HSV-1: completely counteract the virus infection; also recorded: significantly decreased
HSV-1 [2]
  HSV-1 replication (virus gB RNA level): significantly decreased
HSV-2 [3]
  number of plaque forming units (PFU) in titer, HSV-2: completely counteract the virus infection; also recorded: significantly decreased
HSV-2 [4]
  HSV-2 replication (virus gB RNA level): significantly decreased
VSV
  VSV titer / virus cytopathic effect (TCID50%): significantly reduces the virus cytopathic effect; also recorded: significantly decreased
EMCV
  EMCV titer / virus cytopathic effect (TCID50%): significantly decreased
Influenza A virus
  Influenza A virus replication (virus M2 RNA level): also reduced; also recorded: significantly decreased
HSV-1 [5]
  number of plaque forming units (PFU) in titer, HSV-1: significantly reduced; also recorded: significantly decreased
HSV-1 [6]
  HSV-1 replication (virus gB RNA level): reduction of the viral replication; also recorded: significantly decreased
HSV-2 [7]
  number of plaque forming units (PFU) in titer, HSV-2: significantly less plaque-forming units; also recorded: significantly decreased
HSV-2 [8]
  HSV-2 replication (virus gB RNA level): severely inhibited; also recorded: significantly decreased
IRF1 gene expression
  IRF1 gene expression, log 2 fold change: 0.6842
